{"source": "a melting point compilation (Tetko et al.; mined from patent text by program, amines drawn as free bases though some values may be those of a salt)", "data": [{"units": {"melting point": "°C"}, "values": [{"smiles": "Cc1cnc(NCCc2ccccn2)c(=O)n1NC(=O)CCc1cccc(Cl)c1", "melting point": "201 to 207"}, {"smiles": "COc1cc2c3ccc(OC)c(OC)c3n(Cc3ccccc3)c2cc1OC", "melting point": "174 to 175"}, {"smiles": "CCCCc1cnc2ccccc2c1Cc1ccc(C(=O)O)cc1", "melting point": 233}, {"smiles": "O=C1CC(CO)N1C(c1ccccc1)c1ccccc1", "note": "(centres undefined)", "melting point": "101 to 102"}, {"smiles": "CC(=O)N1CCC(Oc2ccc(N3CCOCC3)cc2)CC1", "melting point": "208 to 209"}, {"smiles": "NC(=O)c1cnc2ccc(Cl)cc2c1Cl", "melting point": 209}, {"smiles": "COc1ccc2c(c1)CN(S(=O)(=O)NC(Cc1cc3c(N)nccc3s1)C(=O)N1CCC(C)CC1)CC2", "note": "(centres undefined)", "melting point": "175 to 176"}, {"smiles": "O=C(CC(c1ccccc1)c1ccccc1)Nc1ccccc1Cl", "melting point": 181}, {"smiles": "O=c1oc(-c2cccc(C(F)(F)F)c2)cc(O)c1SCc1ccccc1", "melting point": "152 to 153"}, {"smiles": "CSCc1cn(C)c2cc(Br)ccc2c1=O", "melting point": "168 to 170"}, {"smiles": "CCOC(=O)C1=C(C)Nc2nc(N3CCOCC3)nc(N3CCOCC3)c2C1c1cccc([N+](=O)[O-])c1", "note": "(centres undefined)", "melting point": 190}, {"smiles": "Cc1ccc(C2SCC(=O)CS2)cc1", "melting point": "112 to 113"}, {"smiles": "O=c1c2c(c3cccnc3n1-c1ccccc1)OCC(O)C2", "note": "(centres undefined)", "melting point": "296 to 298"}, {"smiles": "O=C(CBr)c1cccc(OCc2ccc3ccc(Cl)cc3n2)c1", "melting point": "110 to 112"}, {"smiles": "CSc1ccc(C2=C(c3ccc(Cl)cc3)CCC2)cc1", "melting point": "72 to 74"}, {"smiles": "CCC1CCC2C3CC=C4CCCCC4(C)C3CCC12C", "note": "(centres undefined)", "melting point": "104 to 106"}, {"smiles": "COc1ccc(CNC(=O)c2cc3c(=O)n(CCS(=O)(=O)c4ccccc4)c(=O)n(C)c3s2)cc1", "melting point": "118 to 121"}, {"smiles": "COc1ccc(-c2c(C(=O)CC(C)C)c(C)nc3cc(OC)c(OC)cc23)cc1OC", "melting point": "135 to 137"}, {"smiles": "Sc1nc2ccccc2c2nc(-c3ccoc3)nn12", "melting point": "290 to 292"}, {"smiles": "CCOP(=O)(OCC)C(O)c1ccc([N+](=O)[O-])cc1", "note": "(centres undefined)", "melting point": "94 to 95"}, {"smiles": "CCOC(=O)C(=O)N(O)Cc1ccc2c(c1)OCc1ccccc1C2=O", "melting point": "52 to 62"}, {"smiles": "COc1cccc(OCCCc2cn(-c3ccc(C(F)(F)F)cn3)nc2C(C)C)c1CC(=O)O", "melting point": "183 to 184"}, {"smiles": "Cc1ccc(C)c(NC(=O)C(C)c2ccc(N)c([N+](=O)[O-])c2)c1", "note": "(centres undefined)", "melting point": "187 to 188"}, {"smiles": "c1cc2c3c(c1)nc(N1CCC(c4c[nH]cn4)CC1)n3CCC2", "melting point": "250 to 255"}, {"smiles": "CCNC1=NN(c2ccc(Cl)cc2)CC1C", "note": "(centres undefined)", "melting point": "63 to 64"}, {"smiles": "CCC(=O)Nc1cccc2c1C(=O)c1c-2n[nH]c1-c1ccc(OC)cc1", "melting point": 287}, {"smiles": "COc1ccc(OCCO)cc1", "melting point": "69 to 71"}, {"smiles": "CNc1nc2ccc(CCc3nc4cc(C)ccn4c3C)cc2o1", "melting point": "203 to 205"}, {"smiles": "CSc1nc(=O)n(Cc2ccccc2)c2ncn(C)c12", "melting point": "268 to 270"}, {"smiles": "Nc1ncc(-c2cccc(Cl)c2Cl)c(N)n1", "melting point": "208 to 211"}, {"smiles": "Cc1cccc(C2CCN(C(=O)Oc3ccccc3)CC2)c1", "melting point": "127 to 130"}, {"smiles": "c1cn(CCCc2ccc(OCc3coc(-c4cc5c(s4)CCCC5)n3)cc2)cn1", "melting point": "83 to 84"}, {"smiles": "O=C(Nc1cc(F)cc(F)c1)c1cc(Br)ccc1O", "melting point": "259 to 261"}, {"smiles": "NC(=O)c1ccnc(Oc2cccc(C(F)(F)F)c2)n1", "melting point": 113}, {"smiles": "COc1cc(NC(=O)Nc2ccc(N3CCN(C(=O)Nc4ccc(OCCO)cc4C(F)(F)F)CC3)cc2)cc(OC)c1", "melting point": "209 to 210"}, {"smiles": "CC(C)(C)OC(=O)NCc1ccsc1CC(=O)O", "melting point": "62 to 63"}, {"smiles": "CC(c1ccccc1)n1cncc1C(N)=O", "note": "(centres undefined)", "melting point": "136 to 137"}, {"smiles": "CCOC(=O)/C=C/c1c(-c2ccccc2)c2ccccc2c(=O)n1C", "melting point": "163 to 165"}, {"smiles": "O=C1N[C@H](Cc2cccc(C(F)(F)F)c2)[C@H](c2ccc(F)cc2)O1", "note": "(racemic)", "melting point": "177 to 178"}, {"smiles": "O=[N+]([O-])N(c1ccccc1)c1ccccc1", "melting point": 118}, {"smiles": "CC(C)(C)C(NC(=O)CCc1cccnc1)Nc1c(Nc2cccnc2Cl)c(=O)c1=O", "note": "(centres undefined)", "melting point": "179 to 180"}, {"smiles": "C#Cc1ccc(NC(=O)OC(C)(C)C)c([N+](=O)[O-])c1", "melting point": 102}, {"smiles": "CCOc1cc(-c2ccc(S(C)(=O)=O)cc2)c(-c2ccc(F)cc2)c(C(F)(F)F)n1", "melting point": "168 to 170"}, {"smiles": "O=C(CC[C@H]1CC1(c1ccccc1)c1ccccc1)Oc1ccc([N+](=O)[O-])cc1", "melting point": "76 to 77"}, {"smiles": "CCC(=O)N1C(=O)OC(C)(C)[C@@H]1C", "melting point": 86}, {"smiles": "CNC1([C@@H]2CCN(c3ccc4c(=O)c(C(=O)O)cn5c4c3OC[C@@H]5C)C2)CC1", "melting point": "227 to 229"}, {"smiles": "O=C(O)COc1ccc(-c2c3ccc(OCC(=O)O)cc3cc3sc4ccccc4c23)cc1", "melting point": "245 to 246"}, {"smiles": "Clc1ccc(-c2nsc3cc(OCCCCBr)ccc23)cc1", "melting point": "68 to 69"}, {"smiles": "CCOC(=O)Nc1ccc(C(=O)CCC(=O)O)cc1", "melting point": "206 to 207"}, {"smiles": "CCCCCCc1cc(-c2ccccc2)c(OCC(=O)O)c(-c2ccccc2)c1", "melting point": "87 to 89"}, {"smiles": "CCOC(=O)Cn1c2cccccc-2c(C(=O)OCC)c1=O", "melting point": "115 to 120"}, {"smiles": "O=C1CCCC2=C1C(c1ccc(F)c(I)c1)C1=C(CCS1)N2", "note": "(centres undefined)", "melting point": "> 250"}, {"smiles": "CC(C)(C)CN1C(=O)[C@@H](CC(=O)NCc2nnn[nH]2)O[C@H](c2ccccc2Cl)c2cc(Cl)ccc21", "note": "(relative stereo)", "melting point": "251 to 252"}, {"smiles": "O=C1N(CO)CCN1CCN1CCC(c2cn(-c3ccc(F)cc3)c3ccc(Cl)cc23)CC1", "melting point": "118 to 119"}, {"smiles": "CCC(OC(=O)C1CC1)c1ccc(Cl)c2nc3n(c12)CCCN3c1ncc(Cl)cc1Cl", "note": "(centres undefined)", "melting point": "154 to 155"}, {"smiles": "Cc1ccc(-c2ccc(S(C)(=O)=O)cc2)n1-c1ccc(-c2ccco2)c(Cl)c1", "melting point": "127 to 131"}, {"smiles": "CC(Cc1ccc(Cl)c(OC(F)(F)C(F)F)c1)NC(=O)C1C2=C(C=CC1(O)c1ccc(F)cc1)CCCC=C2", "note": "(centres undefined)", "melting point": "174 to 175"}, {"smiles": "N#CNC(=NCCN)NC1CCCC(c2csc(NC(=N)N)n2)C1", "note": "(centres undefined)", "melting point": "203 to 205"}, {"smiles": "CCCn1c(COCC)nc2c(N)nc3ccc(OCCNC(=O)C4CCCO4)cc3c21", "note": "(centres undefined)", "melting point": "202 to 204"}, {"smiles": "CS(=O)(=O)Nc1cc2c(cc1Oc1ccccc1)C(=O)C(Sc1ccccc1)C2", "note": "(centres undefined)", "melting point": 86}, {"smiles": "CCCCCCCCCCC(C)OS(=O)(=O)NC(=O)Nc1c(C(C)C)cccc1C(C)C", "note": "(centres undefined)", "melting point": "110 to 112"}, {"smiles": "c1ccc(Cc2ncc(-c3ccncc3)s2)cc1", "melting point": "46 to 47"}, {"smiles": "CCCCS(=O)(=O)Nc1c(C)c(C)c2c(c1C)C(c1ccc(C(C)C)cc1)CO2", "note": "(centres undefined)", "melting point": "96 to 97"}, {"smiles": "c1cc(Nc2nnc3c4c(cccc24)-c2ccccc2-3)cc(-n2ccnc2)c1", "melting point": "223 to 226"}, {"smiles": "COc1ccccc1C(=CC=O)c1ccccc1OC", "melting point": "59.5 to 61.5"}, {"smiles": "Cc1oc(-c2ccccc2)nc1COc1ccc(Cn2cc(CCC(=O)O)c(C(C)C)n2)cc1", "melting point": "97 to 98"}, {"smiles": "CC(=O)N[C@H]1C(O)O[C@H](CO)[C@@H](F)[C@@H]1O", "note": "(some centres undefined)", "melting point": 180}, {"smiles": "COc1cccc(-c2cn(C)cc(-c3cccc(C(F)(F)F)c3)c2=O)c1", "melting point": "113 to 115"}, {"smiles": "CCC(=O)c1cnc2c(O)cccc2c1Nc1ccc(F)cc1C", "melting point": "143 to 146"}, {"smiles": "O=C1COC2(CCN(CCc3ccccc3)CC2)CN1", "melting point": "140 to 141"}, {"smiles": "O=C(O)c1cn2c3c(cc(Cl)cc3c1=O)CCC2", "melting point": "282 to 286"}, {"smiles": "O=C(O)c1c[nH]c2c(=O)c3cc(Cl)ccc3oc2c1=O", "melting point": "325 to 327"}, {"smiles": "CN(C)c1ccc2cc(Cl)cnc2c1C#N", "melting point": 174}, {"smiles": "COc1ccc2c(c1O)C13CCN(CC4CC4)C(C2)C1(Cc1ccccc1)CCC(=O)C3", "note": "(centres undefined)", "melting point": "122 to 124"}, {"smiles": "COC(=O)C1C(NC(C)=O)CC(=O)OC1C", "note": "(centres undefined)", "melting point": "135 to 136"}, {"smiles": "CCOC(=O)N1CCC(N=c2oc3ncnc(N)c3n2Cc2ccc(F)cc2)CC1", "melting point": 175}, {"smiles": "COC(=O)COc1cc(C(C)=O)c(O)c2ccccc12", "melting point": "123 to 124"}, {"smiles": "Nc1ncccc1-c1nc2ccc(-c3ccc(CO)cc3)nc2n1-c1ccc(CNC(=O)c2ccccc2)cc1", "melting point": "118 to 120"}, {"smiles": "Cc1ccc(C(C=NO)=NO)cc1", "melting point": "170 to 176"}, {"smiles": "CC12CC(F)C3C4CCC(=O)C=C4CC(CCCCCCl)C3C1CCC2=O", "note": "(centres undefined)", "melting point": "51 to 53"}, {"smiles": "Cc1ccc(S(=O)(=O)c2ccc(N3CCC4(CC3)OCCO4)cc2)cc1", "melting point": "164 to 165"}, {"smiles": "CCOCCOc1ncc2cc(-c3c(Cl)cccc3Cl)c(=N)n(C)c2n1", "melting point": "133 to 135"}, {"smiles": "O=C(O)COc1cccc2c1CCC(Cn1nc(C(c3ccccc3)c3ccccc3)ccc1=O)C2", "note": "(centres undefined)", "melting point": "144 to 145"}, {"smiles": "O=[N+]([O-])c1ccc2c(c1)C(n1ccccc1=S)=CC(CF)(CF)O2", "melting point": "209 to 210"}, {"smiles": "CCCOc1ccccc1C(=O)Nc1sccc1C(N)=O", "melting point": "176 to 178"}, {"smiles": "CCC(CC)(COc1ccc2ncnn2n1)CS(N)(=O)=O", "melting point": "194 to 197"}, {"smiles": "COC(=O)c1ccc(NC(=O)OCC2c3ccccc3-c3ccccc32)cc1O", "melting point": "156 to 159"}, {"smiles": "O=C(Nc1cnccn1)N1CCN(c2nc(-c3cccc(F)c3)cs2)CC1", "melting point": "158 to 159"}, {"smiles": "OC(CCN1CCN(c2ccccn2)CC1)COc1cccc(C(F)(F)F)c1", "note": "(centres undefined)", "melting point": "81 to 81.5"}, {"smiles": "CCN1CCN2C(=O)c3ccccc3C12c1ccc(Cl)cc1", "note": "(centres undefined)", "melting point": 114}, {"smiles": "O=C(O)Cc1cccc(C(=O)c2ccc(O)cc2)c1", "melting point": "147 to 149"}, {"smiles": "O=C(NCCO)c1ccc2c3c(cc([N+](=O)[O-])c2c1)NCC3CCl", "note": "(centres undefined)", "melting point": "150 to 151"}, {"smiles": "COC(=O)c1ccc(Cn2c(=O)c3cc(C(=O)NCc4ccc(OC)cc4)sc3n(C)c2=O)cc1", "melting point": "235 to 237"}, {"smiles": "Cn1cc(-c2ccccc2)c(=O)c(-c2ccc(F)cc2)c1", "melting point": 166}, {"smiles": "CC(C)CC[C@H](O)[C@H](CC1CCCCC1)NC(=O)[C@H](Cc1c[nH]cn1)NC(=O)[C@H](Cc1ccccc1)NC(=O)N1CCOCC1", "melting point": "108 to 110"}, {"smiles": "COC(=O)N(C(=O)NN=C1c2ccc(Cl)cc2CC1(O)C(=O)OC)c1ccc(OC(F)(F)F)cc1", "note": "(centres undefined)", "melting point": 168}, {"smiles": "COc1ccc(Cl)cc1C(=O)NCCc1ccc(-c2ccc(Cl)cc2)c(S(N)(=O)=O)c1", "melting point": 185}, {"smiles": "CN(C)CCc1ccc(OCCCNc2nc(N)nn2C)cc1", "melting point": "125 to 126"}, {"smiles": "Cc1c[nH]c(=O)n(-c2cc(C(=O)OC(C)C)c(Cl)cc2F)c1=O", "melting point": "170 to 173"}]}]}
